Measurements as given in BindingDB's records for doi:10.1021/jm9604437 (Hoechst Marion Roussel, 1996).

What was measured:
[1] = biological target: Dihydroorotate dehydrogenase (quinone), mitochondrial (Mus musculus, UniProt O35435); assay: Inhibitory concentration tested on enzyme dihydroorotate dehydrogenase in mouse
[2] = biological target: Dihydroorotate dehydrogenase (quinone), mitochondrial (Rattus norvegicus, UniProt Q63707); assay: Inhibitory concentration tested against enzyme dihydroorotate dehydrogenase in rat
Dihydroorotate dehydrogenase (quinone), mitochondrial (Rattus norvegicus, UniProt Q63707), sequence (Q63707 whole entry): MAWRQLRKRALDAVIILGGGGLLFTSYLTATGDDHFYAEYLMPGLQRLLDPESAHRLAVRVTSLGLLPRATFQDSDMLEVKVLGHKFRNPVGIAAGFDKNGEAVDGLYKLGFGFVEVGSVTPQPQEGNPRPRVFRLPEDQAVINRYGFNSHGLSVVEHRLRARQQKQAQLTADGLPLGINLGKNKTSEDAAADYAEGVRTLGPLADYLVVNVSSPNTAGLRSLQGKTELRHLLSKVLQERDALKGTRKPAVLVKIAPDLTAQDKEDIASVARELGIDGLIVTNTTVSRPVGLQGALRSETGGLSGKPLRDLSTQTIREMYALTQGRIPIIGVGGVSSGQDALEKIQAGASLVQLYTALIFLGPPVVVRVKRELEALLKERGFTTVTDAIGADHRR

Dihydroorotate dehydrogenase (quinone), mitochondrial (Mus musculus, UniProt O35435), sequence (O35435 whole entry): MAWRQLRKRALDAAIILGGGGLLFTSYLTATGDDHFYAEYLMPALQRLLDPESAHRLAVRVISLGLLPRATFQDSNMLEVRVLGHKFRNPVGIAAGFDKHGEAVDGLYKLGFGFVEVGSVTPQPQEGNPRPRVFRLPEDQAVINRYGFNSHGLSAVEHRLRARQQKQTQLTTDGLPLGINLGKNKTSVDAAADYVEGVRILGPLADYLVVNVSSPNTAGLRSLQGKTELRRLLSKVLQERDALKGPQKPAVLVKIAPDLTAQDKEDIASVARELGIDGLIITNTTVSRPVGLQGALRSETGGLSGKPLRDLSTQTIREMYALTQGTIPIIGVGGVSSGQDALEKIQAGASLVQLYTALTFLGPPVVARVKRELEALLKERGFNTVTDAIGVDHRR

## CC=CC(=O)C(C#N)C(=O)Nc1ccc(C(F)(F)F)cc1 (centres undefined)
[1]
  IC50: 0.063 µM

## N#CC(C(=O)Nc1ccc(C(F)(F)F)cc1)C(=O)c1ccc(C(F)(F)F)cc1 (centres undefined) [2-Cyano-3-hydroxy-3,N-bis-(4-trifluoromethyl-phenyl)-acrylamide]
[2]
  IC50: > 100 µM
[1]
  IC50: > 100 µM

## N#CC(C(=O)Nc1ccccc1C(F)(F)F)C(=O)C1CC1 (centres undefined) [(Z)-2-Cyano-3-cyclopropyl-3-hydroxy-N-(2-trifluoromethyl-phenyl)-acrylamide]
[2]
  IC50: > 100 µM
[1]
  IC50: > 100 µM

## CN1CCCC1C(=O)C(C#N)C(=O)Nc1ccc(C(F)(F)F)cc1 (centres undefined) [(Z)-2-Cyano-3-hydroxy-3-(1-methyl-pyrrolidin-2-yl)-N-(4-trifluoromethyl-phenyl)-acrylamide]
[2]
  IC50: > 100 µM
[1]
  IC50: > 100 µM

## N#CC(C(=O)Nc1ccc(C(F)(F)F)cc1)C(=O)C1CCCN1 (centres undefined) [(Z)-2-Cyano-3-hydroxy-3-pyrrolidin-2-yl-N-(4-trifluoromethyl-phenyl)-acrylamide]
[2]
  IC50: > 100 µM
[1]
  IC50: > 100 µM
